Each block holds one compound with its values, some of them ahead of it.
Assays:
[1] = Formation of 1,5-cz-[M(Lig)] from Lig and M^III ions (metal dependent click-zip) (Charts 4, 5); type: physicochemical; details: MOPS/NaOH buffer pH 7.0; for conversion to 1,5-cz-[M(Lig)], Sc^III / conversion to 1,5-cz-[M(Lig)], Y^III: TD728, TD827 in 50% i-PrOH; for conversion to 1,5-cz-[M(Lig)], Y^III: TD714 sum of two diastereoisomers
[2] = Formation of 1,5-cz-[Ln(Lig)] from Lig and Ln^III ions (metal dependent click-zip), MOPS/NaOH buffer pH 7.0, analytical HPLC (Charts 1, 2); details: MOPS/NaOH buffer pH 7.0

conversion to 1,5-cz-[M(Lig)], Sc^III ([1]; 1 week at 80° C.): 29% | conversion to 1,5-cz-[M(Lig)], Y^III ([1]; 1 week at 80° C.): 83% | conversion to 1,5-cz-[M(Lig)], Sc^III ([1]; 1 hour at 80° C.): 0% | conversion to 1,5-cz-[M(Lig)], Y^III ([1]; 1 hour at 80° C.): 2% | conversion to 1,5-cz-[Ln(Lig)], Ce^III ([2]; after 1 week at 80° C.): 7% | conversion to 1,5-cz-[Ln(Lig)], Ce^III ([2]; after 1 hour at 80° C.): 0% | conversion to 1,5-cz-[Ln(Lig)], Dy^III ([2]; after 1 week at 80° C.): 80% | conversion to 1,5-cz-[Ln(Lig)], Dy^III ([2]; after 1 hour at 80° C.): 2% | conversion to 1,5-cz-[Ln(Lig)], Er^III ([2]; after 1 week at 80° C.): 91% | conversion to 1,5-cz-[Ln(Lig)], Er^III ([2]; after 1 hour at 80° C.): 4% | conversion to 1,5-cz-[Ln(Lig)], Eu^III ([2]; after 1 week at 80° C.): 53% | conversion to 1,5-cz-[Ln(Lig)], Eu^III ([2]; after 1 hour at 80° C.): 1% | conversion to 1,5-cz-[Ln(Lig)], Gd^III ([2]; after 1 week at 80° C.): 56% | conversion to 1,5-cz-[Ln(Lig)], Gd^III ([2]; after 1 hour at 80° C.): 1% | conversion to 1,5-cz-[Ln(Lig)], Ho^III ([2]; after 1 week at 80° C.): 86% | conversion to 1,5-cz-[Ln(Lig)], Ho^III ([2]; after 1 hour at 80° C.): 3% | conversion to 1,5-cz-[Ln(Lig)], La^III ([2]; after 1 week at 80° C.): 18% | conversion to 1,5-cz-[Ln(Lig)], La^III ([2]; after 1 hour at 80° C.): 0% | conversion to 1,5-cz-[Ln(Lig)], Lu^III ([2]; after 1 week at 80° C.): 97% | conversion to 1,5-cz-[Ln(Lig)], Lu^III ([2]; after 1 hour at 80° C.): 13% | conversion to 1,5-cz-[Ln(Lig)], Nd^III ([2]; after 1 week at 80° C.): 25% | conversion to 1,5-cz-[Ln(Lig)], Nd^III ([2]; after 1 hour at 80° C.): 0% | conversion to 1,5-cz-[Ln(Lig)], Pr^III ([2]; after 1 week at 80° C.): 15% | conversion to 1,5-cz-[Ln(Lig)], Pr^III ([2]; after 1 hour at 80° C.): 0% | conversion to 1,5-cz-[Ln(Lig)], Sm^III ([2]; after 1 week at 80° C.): 46% | conversion to 1,5-cz-[Ln(Lig)], Sm^III ([2]; after 1 hour at 80° C.): 0% | conversion to 1,5-cz-[Ln(Lig)], Tb^III ([2]; after 1 week at 80° C.): 72% | conversion to 1,5-cz-[Ln(Lig)], Tb^III ([2]; after 1 hour at 80° C.): 1% | conversion to 1,5-cz-[Ln(Lig)], Tm^III ([2]; after 1 week at 80° C.): 93% | conversion to 1,5-cz-[Ln(Lig)], Tm^III ([2]; after 1 hour at 80° C.): 7% | conversion to 1,5-cz-[Ln(Lig)], Yb^III ([2]; after 1 week at 80° C.): 95% | conversion to 1,5-cz-[Ln(Lig)], Yb^III ([2]; after 1 hour at 80° C.): 10%
SMILES: [N-]=[N+]=NCc1cccc(CN2CCN(CC(=O)O)CCN(Cc3cccc(C#CC4CCNCC4)n3)CCN(CC(=O)O)CC2)n1 [TD1127]

conversion to 1,5-cz-[Ln(Lig)] with hydrolysed group in the side chain, Sc^III ([1]; 1 week at 80° C.): 11% | conversion to 1,5-cz-[Ln(Lig)] with hydrolysed group in the side chain, Y^III ([1]; 1 week at 80° C.): 94% | conversion to 1,5-cz-[M(Lig)], Sc^III ([1]; 1 week at 80° C.): 0% | conversion to 1,5-cz-[M(Lig)], Y^III ([1]; 1 week at 80° C.): 0% | conversion to 1,5-cz-[Ln(Lig)] with hydrolysed group in the side chain, Sc^III ([1]; 1 hour at 80° C.): 0% | conversion to 1,5-cz-[Ln(Lig)] with hydrolysed group in the side chain, Y^III ([1]; 1 hour at 80° C.): 3% | conversion to 1,5-cz-[M(Lig)], Sc^III ([1]; 1 hour at 80° C.): 0% | conversion to 1,5-cz-[M(Lig)], Y^III ([1]; 1 hour at 80° C.): 18% | conversion to 1,5-cz-[Ln(Lig)] with hydrolysed group in the side chain, Ce^III ([2]; after 1 week at 80° C.): 27% | conversion to 1,5-cz-[Ln(Lig)], Ce^III ([2]; after 1 week at 80° C.): 0% | conversion to 1,5-cz-[Ln(Lig)] with hydrolysed group in the side chain, Ce^III ([2]; after 1 hour at 80° C.): 0% | conversion to 1,5-cz-[Ln(Lig)], Ce^III ([2]; after 1 hour at 80° C.): 0% | conversion to 1,5-cz-[Ln(Lig)] with hydrolysed group in the side chain, Dy^III ([2]; after 1 week at 80° C.): 93% | conversion to 1,5-cz-[Ln(Lig)], Dy^III ([2]; after 1 week at 80° C.): 0% | conversion to 1,5-cz-[Ln(Lig)] with hydrolysed group in the side chain, Dy^III ([2]; after 1 hour at 80° C.): 2% | conversion to 1,5-cz-[Ln(Lig)], Dy^III ([2]; after 1 hour at 80° C.): 14% | conversion to 1,5-cz-[Ln(Lig)] with hydrolysed group in the side chain, Er^III ([2]; after 1 week at 80° C.): 94% | conversion to 1,5-cz-[Ln(Lig)], Er^III ([2]; after 1 week at 80° C.): 0% | conversion to 1,5-cz-[Ln(Lig)] with hydrolysed group in the side chain, Er^III ([2]; after 1 hour at 80° C.): 4% | conversion to 1,5-cz-[Ln(Lig)], Er^III ([2]; after 1 hour at 80° C.): 33% | conversion to 1,5-cz-[Ln(Lig)] with hydrolysed group in the side chain, Eu^III ([2]; after 1 week at 80° C.): 90% | conversion to 1,5-cz-[Ln(Lig)], Eu^III ([2]; after 1 week at 80° C.): 0% | conversion to 1,5-cz-[Ln(Lig)] with hydrolysed group in the side chain, Eu^III ([2]; after 1 hour at 80° C.): 0% | conversion to 1,5-cz-[Ln(Lig)], Eu^III ([2]; after 1 hour at 80° C.): 4% | conversion to 1,5-cz-[Ln(Lig)] with hydrolysed group in the side chain, Gd^III ([2]; after 1 week at 80° C.): 90% | conversion to 1,5-cz-[Ln(Lig)], Gd^III ([2]; after 1 week at 80° C.): 0% | conversion to 1,5-cz-[Ln(Lig)] with hydrolysed group in the side chain, Gd^III ([2]; after 1 hour at 80° C.): 1% | conversion to 1,5-cz-[Ln(Lig)], Gd^III ([2]; after 1 hour at 80° C.): 5% | conversion to 1,5-cz-[Ln(Lig)] with hydrolysed group in the side chain, Ho^III ([2]; after 1 week at 80° C.): 94% | conversion to 1,5-cz-[Ln(Lig)], Ho^III ([2]; after 1 week at 80° C.): 0% | conversion to 1,5-cz-[Ln(Lig)] with hydrolysed group in the side chain, Ho^III ([2]; after 1 hour at 80° C.): 3% | conversion to 1,5-cz-[Ln(Lig)], Ho^III ([2]; after 1 hour at 80° C.): 21% | conversion to 1,5-cz-[Ln(Lig)] with hydrolysed group in the side chain, La^III ([2]; after 1 week at 80° C.): 36% | conversion to 1,5-cz-[Ln(Lig)], La^III ([2]; after 1 week at 80° C.): 0% | conversion to 1,5-cz-[Ln(Lig)] with hydrolysed group in the side chain, La^III ([2]; after 1 hour at 80° C.): 0% | conversion to 1,5-cz-[Ln(Lig)], La^III ([2]; after 1 hour at 80° C.): 0% | conversion to 1,5-cz-[Ln(Lig)] with hydrolysed group in the side chain, Lu^III ([2]; after 1 week at 80° C.): 96% | conversion to 1,5-cz-[Ln(Lig)], Lu^III ([2]; after 1 week at 80° C.): 0% | conversion to 1,5-cz-[Ln(Lig)] with hydrolysed group in the side chain, Lu^III ([2]; after 1 hour at 80° C.): 6% | conversion to 1,5-cz-[Ln(Lig)], Lu^III ([2]; after 1 hour at 80° C.): 57% | conversion to 1,5-cz-[Ln(Lig)] with hydrolysed group in the side chain, Nd^III ([2]; after 1 week at 80° C.): 71% | conversion to 1,5-cz-[Ln(Lig)], Nd^III ([2]; after 1 week at 80° C.): 0% | conversion to 1,5-cz-[Ln(Lig)] with hydrolysed group in the side chain, Nd^III ([2]; after 1 hour at 80° C.): 0% | conversion to 1,5-cz-[Ln(Lig)], Nd^III ([2]; after 1 hour at 80° C.): 1% | conversion to 1,5-cz-[Ln(Lig)] with hydrolysed group in the side chain, Pr^III ([2]; after 1 week at 80° C.): 61% | conversion to 1,5-cz-[Ln(Lig)], Pr^III ([2]; after 1 week at 80° C.): 0% | conversion to 1,5-cz-[Ln(Lig)] with hydrolysed group in the side chain, Pr^III ([2]; after 1 hour at 80° C.): 0% | conversion to 1,5-cz-[Ln(Lig)], Pr^III ([2]; after 1 hour at 80° C.): 0% | conversion to 1,5-cz-[Ln(Lig)] with hydrolysed group in the side chain, Sm^III ([2]; after 1 week at 80° C.): 86% | conversion to 1,5-cz-[Ln(Lig)], Sm^III ([2]; after 1 week at 80° C.): 0% | conversion to 1,5-cz-[Ln(Lig)] with hydrolysed group in the side chain, Sm^III ([2]; after 1 hour at 80° C.): 0% | conversion to 1,5-cz-[Ln(Lig)], Sm^III ([2]; after 1 hour at 80° C.): 3% | conversion to 1,5-cz-[Ln(Lig)] with hydrolysed group in the side chain, Tb^III ([2]; after 1 week at 80° C.): 91% | conversion to 1,5-cz-[Ln(Lig)], Tb^III ([2]; after 1 week at 80° C.): 0% | conversion to 1,5-cz-[Ln(Lig)] with hydrolysed group in the side chain, Tb^III ([2]; after 1 hour at 80° C.): 1% | conversion to 1,5-cz-[Ln(Lig)], Tb^III ([2]; after 1 hour at 80° C.): 9% | conversion to 1,5-cz-[Ln(Lig)] with hydrolysed group in the side chain, Tm^III ([2]; after 1 week at 80° C.): 95% | conversion to 1,5-cz-[Ln(Lig)], Tm^III ([2]; after 1 week at 80° C.): 0% | conversion to 1,5-cz-[Ln(Lig)] with hydrolysed group in the side chain, Tm^III ([2]; after 1 hour at 80° C.): 5% | conversion to 1,5-cz-[Ln(Lig)], Tm^III ([2]; after 1 hour at 80° C.): 45% | conversion to 1,5-cz-[Ln(Lig)] with hydrolysed group in the side chain, Yb^III ([2]; after 1 week at 80° C.): 95% | conversion to 1,5-cz-[Ln(Lig)], Yb^III ([2]; after 1 week at 80° C.): 0% | conversion to 1,5-cz-[Ln(Lig)] with hydrolysed group in the side chain, Yb^III ([2]; after 1 hour at 80° C.): 5% | conversion to 1,5-cz-[Ln(Lig)], Yb^III ([2]; after 1 hour at 80° C.): 54%
SMILES: C#Cc1cccc(CN2CCN(CC(=O)O)CCN(Cc3cc(C(=O)OC(C)C)cc(CN=[N+]=[N-])n3)CCN(CC(=O)O)CC2)n1 [TD1148]

— patent publication US20250147039A1, “Compounds for complexation of rare earth elements and/or s-, p-, d- block metals, their coordination compounds, peptide conjugates, method of their preparation and use thereof” (USTAV ORGANICKE CHEMIE A BIOCHEMIE AV CR V.V.I., priority 2021, published 2025)
